Patent publication US11926626B2, “Heterocyclic GLP-1 agonists” (Gasherbrum Bio, Inc., priority 2020, dated 2024)

Each molecule was assayed against GLP-1 Receptor (Homo sapiens, UniProt P43220) (assay: GLP-1R agonist cAMP stimulation assay (HEK293/GLP1R/CRE-Luc cells, HTRF cAMP)). Conditions: HEK293/CRE-Luc cells stably expressing GLP-1 Receptor; 30 min, 37° C.
Sequence of GLP-1 Receptor (P43220 24-463): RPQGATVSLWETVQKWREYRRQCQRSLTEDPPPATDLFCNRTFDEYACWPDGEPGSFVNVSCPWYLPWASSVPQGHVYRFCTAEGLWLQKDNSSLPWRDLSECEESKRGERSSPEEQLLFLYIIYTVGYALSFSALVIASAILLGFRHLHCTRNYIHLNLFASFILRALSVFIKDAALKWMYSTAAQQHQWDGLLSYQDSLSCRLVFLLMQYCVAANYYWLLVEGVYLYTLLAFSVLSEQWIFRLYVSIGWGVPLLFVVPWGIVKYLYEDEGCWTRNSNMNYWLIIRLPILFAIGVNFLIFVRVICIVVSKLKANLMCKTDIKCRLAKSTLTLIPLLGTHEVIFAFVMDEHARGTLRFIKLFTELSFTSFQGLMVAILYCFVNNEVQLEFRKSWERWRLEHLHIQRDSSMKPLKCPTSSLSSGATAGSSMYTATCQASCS
Format: cell-based
With O=C(O)c1ccc2nc(CN3CCC(Oc4ccnc(Cc5ccc(Cl)cc5)n4)CC3)n(C[C@H]3CCOC3)c2n1 [Compound 196a, (R)-2-((4-((2-(4-chlorobenzyl)pyrimidin-4-yl)oxy)piperidin-1-yl)methyl)-3-((tetrahydrofuran-3-yl)methyl)-3H-imidazo[4,5-b]pyridine-5-carboxylic acid] the “GLP1R cAMP Stimulation DR: pEC50” value was 8.9.
O=C(O)c1ccc2nc(CN3CCC(Oc4nc(Cc5ccc(Cl)cc5)ncc4F)CC3)n(C[C@H]3CCOC3)c2n1 [Compound 197a, (R)-2-((4-((2-(4-chlorobenzyl)-5-fluoropyrimidin-4-yl)oxy)piperidin-1-yl)methyl)-3-((tetrahydrofuran-3-yl)methyl)-3H-imidazo[4,5-b]pyridine-5-carboxylic acid] was tested, and the “GLP1R cAMP Stimulation DR: pEC50” value was 8.6.
For O=c1[nH]c(-c2ccc3nc(CN4CCC(Oc5ccnc(Cc6ccc(Cl)cc6)n5)CC4)n(C[C@@H]4CCO4)c3n2)no1 [Compound 198a, (S)-3-(2-((4-((2-(4-chlorobenzyl)pyrimidin-4-yl)oxy)piperidin-1-yl)methyl)-3-(oxetan-2-ylmethyl)-3H-imidazo[4,5-b]pyridin-5-yl)-1,2,4-oxadiazol-5(4H)-one], the “GLP1R cAMP Stimulation DR: pEC50” value was 9.2.
NC(=O)c1ccc2nc(CN3CCC(Oc4ccnc(Cc5ccc(Cl)cc5)n4)CC3)n(C[C@@H]3CCO3)c2n1 [Compound 200a, (S)-2-((4-((2-(4-chlorobenzyl)pyrimidin-4-yl)oxy)piperidin-1-yl)methyl)-3-(oxetan-2-ylmethyl)-3H-imidazo[4,5-b]pyridine-5-carboxamide] was tested, and the “GLP1R cAMP Stimulation DR: pEC50” value was 7.1.
O=C(O)c1ccc2nc(CN3CC4CC(Oc5ccnc(Cc6ccc(Cl)cc6)n5)CC4C3)n(C[C@@H]3CCO3)c2n1 (stereo partly drawn) [Compound 201a, 2-{[5-({2-[(4-chlorophenyl)methyl]pyrimidin-4-yl}oxy)-octahydrocyclopenta[c]pyrrol-2-yl]methyl}-3-{[(2S)-oxetan-2-yl]methyl}-3H-imidazo[4,5-b]pyridine-5-carboxylic acid] was tested, and the “GLP1R cAMP Stimulation DR: pEC50” value was 6.4.
